Experimental data: the supplement of paper PMC11061612

Experiments:
Experiment in all cases: Bliss excess, mean over the matrix (fraction); higher = more synergy
[1] = test system: TE-5 (Esophageal Squamous Cell Carcinoma)
Procedure, shortened: (§1)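 Bliss excess equals the observed combination effect minus the expected value EA + EB − EA·EB, where EA and EB are the effects of each agent alone. Combination Emax is the second-highest inhibition within the matrix. Inhibition was scaled from CellTiter-Glo 2.0 luminescence, with 0 set by vehicle wells and 1 by blank wells, after 72 hours of two-drug dosing of cells plated in 1536-well plates.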

DSH1 (Bladder Carcinoma) = test system: DSH1 (Bladder Carcinoma)
Procedure, shortened: as §1

[2] = test system: IHH-4 (Thyroid Gland Carcinoma)
Procedure, shortened: as §1

[3] = test system: SW1783 (Low Grade Glioma)
Procedure, shortened: as §1

[4] = test system: NALM-6 (B-Lymphoblastic Leukemia)
Procedure, shortened: as §1

NCI-H2595 (Mesothelioma) = test system: NCI-H2595 (Mesothelioma)
Procedure, shortened: as §1

[5] = test system: KARPAS-620 (Plasma Cell Myeloma)
Procedure, shortened: as §1

SK-N-FI (Neuroblastoma) = test system: SK-N-FI (Neuroblastoma)
Procedure, shortened: as §1

[6] = test system: LS-513 (Colorectal Carcinoma)
Procedure, shortened: as §1

[7] = test system: MFH-ino (Other Solid Carcinomas)
Procedure, shortened: as §1

[8] = test system: KATOIII (Gastric Carcinoma)
Procedure, shortened: as §1

[9] = test system: DB (B-Cell Non-Hodgkin's Lymphoma)
Procedure, shortened: as §1

[10] = test system: MDA-MB-231 (Breast Carcinoma)
Procedure, shortened: as §1

[11] = test system: G-292-Clone-A141B1 (Osteosarcoma)
Procedure, shortened: as §1

[12] = test system: SW1088 (Low Grade Glioma)
Procedure, shortened: as §1

[13] = test system: NCI-H211 (Small Cell Lung Carcinoma)
Procedure, shortened: as §1

[14] = test system: U-266 (Plasma Cell Myeloma)
Procedure, shortened: as §1

[15] = test system: HT-29 (Colorectal Carcinoma)
Procedure, shortened: as §1

[16] = test system: OCI-AML2 (Acute Myeloid Leukemia)
Procedure, shortened: as §1

[17] = test system: SW1990 (Pancreatic Carcinoma)
Procedure, shortened: as §1

SMILES | Bliss excess [1] | Bliss excess (DSH1 (Bladder Carcinoma)) | Bliss excess [2] | Bliss excess [3] | Bliss excess [4] | Bliss excess (NCI-H2595 (Mesothelioma)) | Bliss excess [5] | Bliss excess (SK-N-FI (Neuroblastoma)) | Bliss excess [6] | Bliss excess [7] | Bliss excess [8] | Bliss excess [9] | Bliss excess [10] | Bliss excess [11] | Bliss excess [12] | Bliss excess [13] | Bliss excess [14] | Bliss excess [15] | Bliss excess [16] | Bliss excess [17]
O=C(c1cc(Cc2n[nH]c(=O)c3ccccc23)ccc1F)N1CCN(C(=O)C2CC2)CC1 [Olaparib] + CN(CC[C@H](CSC1=CC=CC=C1)NC2=C(C=C(C=C2)S(=O)(=O)NC(=O)C3=CC=C(C=C3)N4CCC(CC4)[C@H](C5=CC=CC=C5C6=CC=C(C=C6)Cl)O)S(=O)(=O)C(F)(F)F)CCO [AZD4320] (first compound max 10 µM, 7x7, partner max 1 µM) | -0.0436 | 0.0308 | -0.0368 | -0.0391 | 0.0211 | -0.045 | 0.0017 | -0.0374 | -0.0326 | -0.0594 | -0.0047 | -0.0863 | -0.071 | -0.0275 | -0.0518 | 0.0233 | -0.0187 | -0.0278 | 0.041 | -0.0818
N#Cc1cnc(Nc2cc(NC[C@H]3CNCCO3)c(C(F)(F)F)cn2)cn1 [SRA737] + CCc1c2c(nc3ccc(O)cc13)-c1cc3c(c(=O)n1C2)COC(=O)[C@]3(O)CC [SN-38] (first compound max 10 µM, 7x7, partner max 0.3 µM) | -0.0682 | -0.0809 | -0.0117 | -0.038 | -0.0083 | -0.0762 | 0.0655 | -0.121 | -0.114 | -0.0461 | -0.0046 | -0.0472 | -0.0227 | 0.0099 | -0.0339 | -0.0649 | 0.0402 | 0.0196 | -0.0348 | -0.0824
CS(=O)(=O)CCNCc1ccc(-c2ccc3ncnc(Nc4ccc(OCc5cccc(F)c5)c(Cl)c4)c3c2)o1 [Lapatinib] + NC1(c2ccc(-c3nc4ccn5c(=O)[nH]nc5c4cc3-c3ccccc3)cc2)CCC1 [MK-2206] (first compound max 10 µM, 7x7, partner max 10 µM) | 0.0735 | 0.0917 | 0.0087 | -0.0201 | -0.0044 | -0.0559 | 0.032 | -0.0027 | -0.0396 | -0.102 | 0.0226 | -0.0017 | 0.0364 | -0.0004 | 0.0163 | 0.058 | -0.016 | 0.0084 | 0.0419 | -0.003
N#Cc1cnc(Nc2cc(NC[C@H]3CNCCO3)c(C(F)(F)F)cn2)cn1 [SRA737] + Nc1ccn([C@@H]2O[C@H](CO)[C@@H](O)C2(F)F)c(=O)n1 [Gemcitabine] (first compound max 10 µM, 7x7, partner max 0.3 µM) | -0.0151 | 0.0195 | 0.0649 | 0.0091 | -0.0673 | 0.0252 | 0.151 | 0.0476 | -0.0189 | -0.0148 | -0.0794 | 0.0174 | 0.105 | 0.0405 | -0.0658 | 0.0372 | -0.0101 | 0.0573 | – | -0.0384
Cc1c2c(nn1C)CSCc1cc(n(C)n1)CSc1cc(c3ccccc3c1)OCCCc1c(C(=O)O)n(C)c3c-2c(Cl)ccc13 [AZD5991] + CC(=O)O[C@H]1C(=O)[C@@]2(C)[C@H]([C@H](OC(=O)c3ccccc3)[C@]3(O)C[C@H](OC(=O)[C@H](O)[C@@H](NC(=O)c4ccccc4)c4ccccc4)C(C)=C1C3(C)C)[C@]1(OC(C)=O)CO[C@@H]1C[C@@H]2O [Paclitaxel] (first compound max 1 µM, 7x7, partner max 3 µM) | -0.0112 | 0.0523 | -0.0341 | -0.0242 | -0.0432 | -0.0504 | -0.0174 | -0.0177 | -0.0216 | -0.0321 | -0.0298 | 0.0342 | 0.0049 | 0.0565 | -0.0192 | 0.0016 | -0.0074 | -0.1 | -0.0046 | -0.0231
Cc1c2c(nn1C)CSCc1cc(n(C)n1)CSc1cc(c3ccccc3c1)OCCCc1c(C(=O)O)n(C)c3c-2c(Cl)ccc13 [AZD5991] + Nc1ccn([C@@H]2O[C@H](CO)[C@@H](O)C2(F)F)c(=O)n1 [Gemcitabine] (first compound max 1 µM, 7x7, partner max 0.3 µM) | 0.0112 | 0.053 | 0.0122 | -0.0199 | -0.0245 | -0.0053 | 0.031 | 0.0074 | -0.102 | -0.0495 | 0.0444 | 0.06 | -0.0947 | -0.0587 | -0.0666 | 0.0489 | 0.0379 | 0.0168 | 0.0516 | 0.0278
C=CCn1c(=O)c2cnc(Nc3ccc(N4CCN(C)CC4)cc3)nc2n1-c1cccc(C(C)(C)O)n1 [AZD1775] + Nc1ccn([C@@H]2O[C@H](CO)[C@@H](O)C2(F)F)c(=O)n1 [Gemcitabine] (first compound max 1 µM, partner max 0.3 µM) | -0.0678 | -0.0833 | 0.0306 | 0.0121 | -0.0093 | -0.0765 | 0.026 | -0.0167 | -0.04 | -0.0087 | -0.0196 | – | 0.0686 | -0.0405 | -0.0468 | 0.0129 | -0.0121 | 0.0422 | 0.0415 | -0.0395
